# Source: US7641914B2, “Acid-sensitive compounds, their preparation and uses” (Gencell, S.A., priority 2000, dated 2010)
# Legend:
# DNA = assay: Ethidium bromide fluorescence test of DNA compaction and release in acidic medium; assay type: physicochemical; conditions: for variation in fluorescence over time (EtBr) / release of DNA over time (increase in EtBr fluorescence): pH 5, 37° C.; for variation in fluorescence over time (EtBr): 0.4 nmol lipid/pg of DNA, DNA not completely compacted; for release of DNA over time (increase in EtBr fluorescence): 1.7 and 6.0 nmol lipid/μg of DNA, complete compaction
# Description: This was easily shown by a fluorescence test with ethidium bromide (EtBr): the absence of fluorescence reflects the absence of free DNA, that means that the DNA was compacted.
# The DNA was brought into contact with increasing quantities of control cationic lipid or of acid-sensitive compound A Syn or Trans, by mixing an equal volume of lipid solutions of different titers with the DNA solutions. Samples of 800 μl of DNA complexes having a concentration of […] were thus prepared in a sodium chloride solution at 150 mM with increasing quantities of control cationic lipid or of acid-sensitive compound A Syn or Trans.
# At time t=0, 200 μl of buffer having a concentration of 0.1 mol/l at pH 5 were added to these samples and the samples were stored in an oven at 37° C. The fluorescence with ethidium bromide (EtBr) was measured over time (measurement at 20° C.) using a FluoroMax-2 (Jobin Yvon-Spex), with excitation and emission wavelengths of 260 nm and 590 nm respectively. The slit widths for excitation and for emission were set at 5 nm. The fluorescence value was recorded after addition of 3 μl of ethidium bromide at 1 g/l per ml of DNA/cationic lipid or DNA/acid-sensitive compound solution (at 0.01 mg of DNA/ml).
# HeLa cells = assay: In vitro transfection of HeLa cells, luciferase activity; assay type: cell-based, human; conditions: charge ratios 1.0 to 10.0 nmol lipid/μg DNA
# Description: This study was carried out at 4 different charge ratios: 1.0 or 4.0 or 6.0 or 10.0 nmol of lipid/μg of DNA. Each of these conditions was tested with and without fetal calf serum (A+ or − Serum a))
# Culture of the cells: HeLa cells (American Type Culture Collection (ATCC) Manassas, Va., USA) derived from a human cervical epithelium carcinoma, were cultured in the presence of a medium of the MEM (“minimum essential medium”) type with addition of 2 mM L-glutamine, 50 units/ml of penicillin, and 50 units/ml of streptomycin. The medium and the additives were obtained from Gibco/BRL Life Technologies/InvitroGen (Gaithersburg, Md., USA). The cells were cultured in flasks at 37° C. and at 5% carbon dioxide in an incubator. […]
# An aliquot of 10 μl of supernatant of the lysate centrifuged (12,000×g) for 5 minutes at 4° C. was measured with the Wallac Victor2 luminometer (1420 Multilabel counter).
# The luciferase activity was assayed by the emission of light in the presence of luciferin, of coenzyme A and of ATP for 10 seconds and expressed relative to 2000 treated cells. The luciferase activity was thus expressed as Relative Light Unit (“RLU”) and normalized with the concentration of proteins in the sample obtained using a Pierce BCA kit (Rockford, Ill., USA).
variation in fluorescence over time (EtBr) (DNA),release of DNA over time (increase in EtBr fluorescence) (DNA),time of release of DNA after the addition of acid (DNA; pH 5 and 37° C.),SMILES,transfection activity (HeLa cells)
no significant variation in fluorescence,released the DNA over time,a few hours,"CCCCCCCCCCCCCCCCCCN(CCCCCCCCCCCCCCCCCC)C(=O)CCCOC1OCC(CNC(=O)CNCCCNCCCCNCCCN)O1 (stereo not drawn) [Compound A Syn, 4-{4-[(2-{3-[4-(3-amino-propylamino)butylamino]propyl-amino}acetylamino)methyl]-[1,3]dioxolan-2-yloxy}-N,N-dioctadecylbutyramide tetraacetate]",high transfection activity
no significant variation in fluorescence,not the case,,"CCCCCCCCCCCCCCCCCCN(CCCCCCCCCCCCCCCCCC)C(=O)CNC(=O)CNCCCNCCCCNCCCN [control cationic lipid, H2N—(CH2)3—NH—(CH2)4—NH—(CH2)3—NH—CH2—CO-Gly-N[(CH2)17—CH3]2, reference compound]",high transfection activity
